Where two headings read alike, the source gives them in different places.
Key:
HIF-1alpha [1] = system: HIF-1alpha
Experimental: LNCaP is a citrate-producing cell (ATTC No. CRL-1740) while PC3 is citrate oxidizing cell (ATTC No. CRL-1435).
Methods: Cells were plated at a density of 5×10^5 cells into a dish, and then maintained in 37° C. incubator (5% CO2) for 2 days. Prior to the assay, cells were rinsed twice with pre-warmed (37° C.) RPMI-1640 Medium (ATCC No. 30-2001; 10 mM HEPES; 1 mM sodium pyruvate; 2 mM L-glutamine; 4500 mg glucose/L; 1500 mg sodium bicarbonate/L). Cells were incubated with 2 mL culture medium in the absence or presence of lonidamine at different concentrations for 4 hours at 37° C. either under normoxia or hypoxia (oxygen level<0.1%). […] For nuclear extracts, cells were lysed with buffer A (10 mM Tris, pH7.5; 1.5 mM MgCl2; 10 mM KCl and protease inhibitors and buffer C (0.5 M NaCl; 20 mM Tris pH7.5; 1.5 mM MgCl2; 20% glycerol and protease inhibitors), sequentially. The protease inhibitors used in the experiments were a cocktail of five protease inhibitors (500 mM AEBSF-HCl, 1 mg/ml Aprotinin, 1 mM E-64, 500 mM EDTA and 1 mM Leupeptin; Calbiochem NO 539131). For whole cell lysate, cells were lysed with 150 mM NaCl; 10 mM Tris ph7.5; 10 mM EDTA; 1% Triton X-100; 0.5% Deoxycholate, and protease inhibitors. The protein concentration was measured using a Bio-Rad protein assay. […]

[2] = system: actin, caspase 3, NF-kappabeta, Ikappabetaalpha; settings: except at 800 microM concentration
Experimental: Methods: Cells were plated at a density of 5×10^5 cells into a dish, and then maintained in 37° C. incubator (5% CO2) for 2 days. Prior to the assay, cells were rinsed twice with pre-warmed (37° C.) RPMI-1640 Medium (ATCC No. 30-2001; 10 mM HEPES; 1 mM sodium pyruvate; 2 mM L-glutamine; 4500 mg glucose/L; 1500 mg sodium bicarbonate/L). Cells were incubated with 2 mL culture medium in the absence or presence of lonidamine at different concentrations for 4 hours at 37° C. either under normoxia or hypoxia (oxygen level<0.1%). At the end of the incubation, the dish was placed on ice, and the cells were washed rapidly twice with cold PBS buffer (4° C.). For nuclear extracts, cells were lysed with buffer A (10 mM Tris, pH7.5; 1.5 mM MgCl2; 10 mM KCl and protease inhibitors and buffer C (0.5 M NaCl; 20 mM Tris pH7.5; 1.5 mM MgCl2; 20% glycerol and protease inhibitors), sequentially. The protease inhibitors used in the experiments were a cocktail of five protease inhibitors (500 mM AEBSF-HCl, 1 mg/ml Aprotinin, 1 mM E-64, 500 mM EDTA and 1 mM Leupeptin; Calbiochem NO 539131). For whole cell lysate, cells were lysed with 150 mM NaCl; 10 mM Tris ph7.5; 10 mM EDTA; 1% Triton X-100; 0.5% Deoxycholate, and protease inhibitors. The protein concentration was measured using a Bio-Rad protein assay. Equal amounts of protein were loaded on a SDS-PAGE gel. […]

HIF-1alpha [3] = settings: PC3 cells, normoxic and hypoxic conditions, 4 hours; inhibition dose-dependent
Experimental: Methods: Cells were plated at a density of 5×10^5 cells into a dish, and then maintained in 37° C. incubator (5% CO2) for 2 days. Prior to the assay, cells were rinsed twice with pre-warmed (37° C.) RPMI-1640 Medium (ATCC No. 30-2001; 10 mM HEPES; 1 mM sodium pyruvate; 2 mM L-glutamine; 4500 mg glucose/L; 1500 mg sodium bicarbonate/L). […] At the end of the incubation, the dish was placed on ice, and the cells were washed rapidly twice with cold PBS buffer (4° C.). For nuclear extracts, cells were lysed with buffer A (10 mM Tris, pH7.5; 1.5 mM MgCl2; 10 mM KCl and protease inhibitors and buffer C (0.5 M NaCl; 20 mM Tris pH7.5; 1.5 mM MgCl2; 20% glycerol and protease inhibitors), sequentially. The protease inhibitors used in the experiments were a cocktail of five protease inhibitors (500 mM AEBSF-HCl, 1 mg/ml Aprotinin, 1 mM E-64, 500 mM EDTA and 1 mM Leupeptin; Calbiochem NO 539131). For whole cell lysate, cells were lysed with 150 mM NaCl; 10 mM Tris ph7.5; 10 mM EDTA; 1% Triton X-100; 0.5% Deoxycholate, and protease inhibitors. The protein concentration was measured using a Bio-Rad protein assay. Equal amounts of protein were loaded on a SDS-PAGE gel. […] The specific protein was detected using a colorimetric substrate, and the intensity of each protein was quantified using an NIH image system.

advanced breast cancer = settings: daily divided oral dose of 600 mg, cited from earlier work
metastatic breast cancer = settings: addition of LND to epirubicin, factorial design; cited from earlier work

O=C(O)c1nn(Cc2ccc(Cl)cc2Cl)c2ccccc12 [lonidamine, 1-(2,4-dichlorobenzyl)-1H-indazole-3-carboxylic acid]
sensitivity of citrate-producing cells (LNCaP) to lonidamine treatment compared to citrate-oxidizing cells (PC3) (HIF-1alpha [1]; HIF-1alpha accumulation, LNCaP versus PC3): greater sensitivity | level of HIF-1alpha protein detected in nuclear (NE) and whole-cell extract (WCE) preparations (HIF-1alpha [1]; LNCaP cells, hypoxic conditions (oxygen <0.1%), 4 hours, inhibition dose-dependent): reduced the level of HIF-1alpha protein | inhibition of protein levels of actin, caspase 3, NF-kappabeta, or Ikappabetaalpha [2]: no detectable inhibition | level of HIF-1alpha protein detected in nuclear (NE) and whole-cell extract (WCE) preparations (HIF-1alpha [3]): reduced the level of HIF-1alpha protein | minor response (advanced breast cancer; 28 patients evaluable): 11% | partial response (4-24+ months) (advanced breast cancer; 28 patients evaluable): 11% | progressed (advanced breast cancer; of 28 patients evaluable): 20 patients | stable disease (greater than 3 months) (advanced breast cancer; of 28 patients evaluable): two | time to progression in metastatic breast cancer patients treated with epirubicin (metastatic breast cancer): not improved

Source: patent US20060276527A1, “Combination therapies for the treatment of cancer” (Thresold Pharmaceuticals, Inc., priority 2003, published 2006)
